According to US20120149765A1, “SGK1 AS DIAGNOSTIC AND THERAPEUTIC TARGET” (priority 2003, published 2012):

What was measured:
[1] = tested on: human vascular smooth muscle cells (HAOSMC); assay: procoagulant activity of human vascular smooth muscle cells (thrombin formation in recalcified platelet-poor plasma); assay type: cell-based; conditions: additional administration of thrombin; cells expressing sgk-WT or sgk-MT; effect more pronounced and more rapid with intact kinase
Experimental: In FIG. 1, the procoagulant activity, in % of the maximum value, is plotted against the time after recalcification. In the experiment relating to FIG. 1, the procoagulant activity of human vascular smooth muscle cells (HAOSMC) was measured by measuring thrombin formation during the coagulation process in recalcified blood platelet-poor plasma (PPP) (Beguin S, Lidhout T, Hemker H C: Throm. Haemost. 61: 25-29, […]). For this, confluent vascular smooth muscle cells were kept for 24 hours in serum-free medium, then washed three times in HEPES-tyrode solution, and then incubated with human PPP. The formation of thrombin was induced by adding 16.7 mM CaCl2 to the incubation medium. In each case 20 μl of the supernatant were removed every one to two minutes and the formation of thrombin in the removed volume was determined using the dye S-2238 (Haemochrom Diagnostica). The optical density was determined at 405 nm in a spectrophotometer (Uvikon, Contron-instruments).

[2] = tested on: tissue factor mRNA (TF mRNA); assay: Northern blot of tissue factor mRNA in human vascular smooth muscle cells; assay type: cell-based; conditions: thrombin 3 U/ml for 4 hours
Experimental: The cells are human vascular smooth muscle cells equivalent to the cells used in the above experiment. 28S rRNA is loaded on as the internal standard. Human TF cDNA was used as the probe. The cells were in each case treated without and with thrombin (3 U/ml) for 4 hours.

Q: For thrombin, which “increase in procoagulant activity, in % of the maximum value, against time after recalcification” value [1] is on record?
A: The value was “accelerated”.

Q: And the “transcription of the tissue factor mRNA” value ([2]; cells containing active SGK (W) as compared with control cells)?
A: Its value is “upregulated”.

Q: And the “transcription of the tissue factor mRNA” value ([2]; cells containing inactive SGK mutant (M))?
A: Its value is “reduced”.
